Results from patent publication US20220348590A1, “CYCLOOXYGENASE-2 INHIBITORS AND USES THEREOF” (The Board Institute, Inc., priority 2019, published 2022).
Read-outs that look alike come from different tables or passages of the source.

Experiments:
ovine COX-1 (oCOX-1) = target: T1, ovine COX-1 (oCOX-1) (Ovis aries, UniProt P05979); test: LCMS-based COX-1 enzymatic inhibition assay (PGE2 quantification); assay type: biochemical
T1 construct: purchased Cayman Chemicals (Ann Arbor, Mich.)
T1 sequence (P05979 25-600): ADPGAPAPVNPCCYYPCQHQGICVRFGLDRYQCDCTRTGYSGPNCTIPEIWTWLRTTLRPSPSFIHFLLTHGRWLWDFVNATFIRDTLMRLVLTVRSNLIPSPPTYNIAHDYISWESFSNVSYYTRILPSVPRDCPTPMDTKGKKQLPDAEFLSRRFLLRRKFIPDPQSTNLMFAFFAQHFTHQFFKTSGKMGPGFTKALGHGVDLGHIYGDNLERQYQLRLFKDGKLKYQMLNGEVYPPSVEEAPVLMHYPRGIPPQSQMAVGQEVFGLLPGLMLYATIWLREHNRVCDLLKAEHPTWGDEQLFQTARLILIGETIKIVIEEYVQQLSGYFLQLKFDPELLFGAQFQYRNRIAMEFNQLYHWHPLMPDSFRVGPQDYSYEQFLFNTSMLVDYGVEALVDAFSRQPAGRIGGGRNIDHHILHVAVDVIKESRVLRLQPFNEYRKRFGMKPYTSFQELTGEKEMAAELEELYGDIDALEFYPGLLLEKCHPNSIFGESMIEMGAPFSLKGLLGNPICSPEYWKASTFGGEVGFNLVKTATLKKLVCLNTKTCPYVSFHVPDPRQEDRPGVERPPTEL
Procedure: We have adapted a previously reported cyclooxygenase enzymatic assay utilizing LCMS quantification of PGE2 as the product of COX-1 and COX2 catalyzed conversion of arachidonic acid to evaluate the binding properties of newly synthesized ligands [Cao, 2011]. These optimized and miniaturized (384-well plates) LCMS-based COX-1 and COX2 enzymatic assays enabled us to quickly evaluate newly synthesized ligands for COX2 binding affinity and selectivity vs COX-1. Using a shorter ligand-enzyme incubation time in the LCMS assay (2 minutes vs 10 minutes) also permitted us to prioritize ligands with faster binding kinetics. Considering the relatively slow on-rate kinetics of known coxibs, due to their 3-step binding mechanism [Marnett, 2009], we believe that optimizing this critical parameter will be key to the successful development of a COX2 PET tracer. Using these enzymatic assays, we have evaluated>200 newly synthesized ligands against COX2 and >20 ligands against COX-1. Another critical property necessary for a good PET radiotracer is to have low non-specific binding (NSB) to increase the free fraction and maximize the signal to noise ratio. This property can be evaluated using in-vitro protein binding assays, and we have now evaluated>50 newly synthesized ligands in mouse, rat and human plasma protein binding (PPB) assays as well as >15 ligands in a mouse brain protein binding (BPB) assay.
Ovine COX-1 (oCOX-1), ovine COX2 (oCOX2), human recombinant COX2 (hCOX2), arachidonic acid, PGE2, d4-PGD2, and […] (labeled with deuterium atoms at positions 3 and 4) were purchased from Cayman Chemicals (Ann Arbor, Mich.). The cofactors (−)epinephrine and hematin, and the COX inhibitors indomethacin, resveratrol and diclofenac were purchased from Sigma-Aldrich (St. Louis, Mo.). Celecoxib was purchased from 3B PharmaChem International (Wuhan, China). All organic solvents were HPLC grade or better and were purchased from Thermo Fisher (Hanover Park, Ill.). Formic acid was purchased from EMD Chemicals (San Diego, Calif.). Purified water was prepared by using a Millipore Milli-Q purification system (Millipore, Billerica, Mass.). All other chemicals and solvents were ACS reagent grade, unless stated otherwise.
In an Eppendorf tube, 146 μL of 100 mM Tris.HCl (pH 8.0) buffer, 2 μL of 100 μM hematin (co-factor) and 10 μL of 40 mM L-epinephrine (co-factor) were mixed at room temperature. Next, 20 μL of Tris.HCl (pH 8.0) buffer containing 0.2 μg COX2 or 0.1 μg COX-1 (approximately 1 unit of enzyme; 1 unit COX utilizes 1 nmol 02/mg/min at 37° C.) was added, and the solution was incubated at room temperature for 2 min. A 2 μL aliquot of the COX inhibitor in DMSO was added to the enzyme solution and preincubated at 37° C. for 10 min. Negative controls were identical except that 2 μL aliquots of DMSO without inhibitor were used instead.
Each COX reaction was initiated by adding 20 μL of arachidonic acid in Tris.HCl (pH 8.0) buffer to give a final concentration of 5 μM; and the reaction was terminated after 2 min by adding 20 μL of 2.0 M HCl. The surrogate standards d4-PGE2 and d4-PGD2 (10 μL aliquot of 50 ng/mL solution in methanol) were added to correct for errors or degradation during sample handling and for variation in injection volume or instrument response during LC-MS-MS. After 30 min, PGE2, PGD2 and their surrogate standards were extracted from each incubation mixture using 800 μL hexane/ethyl acetate (50:50, v/v). The organic phase was removed, evaporated to dryness, and reconstituted in 100 μL methanol/water (50:50, v/v) for analysis using LC-MS-MS.
The concentration of PGE2 in each sample was measured using LC-MS-MS, and the percent of COX inhibition by each test solution was determined by comparing the amount of PGE2 produced in the experiment with that produced in the negative control incubation. The formation of PGD2 was measured for quality control purposes, since the levels of PGD2 should be proportional to those of PGE2. […]

[1] = target: T2, human recombinant COX2 (hCOX2) (UniProt P35354); test: LCMS-based COX2 enzymatic inhibition assay (PGE2 quantification); assay type: biochemical; design: COX2 2 minutes pge2/pge2d4 area ratio Avg; other: 2 minutes; readout pge2/pge2d4 area ratio; average; COX2 2 minutes pge2/pge2d4 area ratio Avg; LLE; average LLE; COX2 2 minutes pge2 area (counts) Avg; readout pge2 area (counts); other: 2 min; "ovine COX2 (oCOX2), human recombinant COX2 (hCOX2)"; conditions: 2 minutes; for IC50: average; for COX2 2 minutes pge2/pge2d4 area ratio Avg. LLE / COX2 2 minutes pge2 area (counts) Avg. LLE: average LLE
T2 sequence (P35354 1-604): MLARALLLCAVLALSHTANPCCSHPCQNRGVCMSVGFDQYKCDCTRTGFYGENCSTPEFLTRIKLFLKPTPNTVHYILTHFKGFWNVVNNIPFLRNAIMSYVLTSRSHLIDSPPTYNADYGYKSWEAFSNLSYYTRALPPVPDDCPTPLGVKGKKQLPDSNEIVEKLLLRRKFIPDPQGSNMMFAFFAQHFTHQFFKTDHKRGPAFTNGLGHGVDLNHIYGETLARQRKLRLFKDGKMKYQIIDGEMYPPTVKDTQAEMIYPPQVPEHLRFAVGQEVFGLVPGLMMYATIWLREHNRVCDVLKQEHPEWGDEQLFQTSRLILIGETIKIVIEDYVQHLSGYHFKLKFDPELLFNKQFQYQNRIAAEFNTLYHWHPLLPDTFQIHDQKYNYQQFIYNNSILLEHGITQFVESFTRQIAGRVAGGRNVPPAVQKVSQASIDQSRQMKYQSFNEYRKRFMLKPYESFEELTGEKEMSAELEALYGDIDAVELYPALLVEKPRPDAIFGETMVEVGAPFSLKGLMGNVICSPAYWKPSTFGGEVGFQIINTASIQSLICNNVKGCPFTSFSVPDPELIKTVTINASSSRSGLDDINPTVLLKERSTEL
How it was run: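 Ovine COX-1 (0.1 μg) or human recombinant COX2 (0.2 μg) in 100 mM Tris.HCl pH 8.0 with hematin and epinephrine, preincubated with inhibitor 10 min at 37 °C. Reaction with 5 μM arachidonic acid stopped after 2 min with HCl; PGE2 quantified by LC-MS-MS. IC50 from 12 concentrations in triplicate.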

[2] = 10 minutes, readout pge2/pge2d4 area ratio, average, read-out: COX1 10 minutes pge2/pge2d4 area ratio Avg. IC50
[3] = readout pge2/pge2d4 area ratio, read-out: COX2 2 minutes pge2/pge2d4 area ratio Avg. IC50
[4] = readout pge2 area (counts), read-out: COX2 2 minutes pge2 area (counts) Avg. IC50
[5] = 10 minutes, head of this section not shown, inferred
[6] = 10 minutes, pge2 area (counts), head of this section not shown, inferred
[7] = 10 minutes, pge2 area (counts), head of this section not shown, inferred, read-out: COX1 10 minutes pge2 area (counts) Avg. IC50

Compound `CS(=O)(=O)c1ccc(-c2cncc(SCc3ccco3)n2)cc1` [Compound 78] has an IC50 (ovine COX-1 (oCOX-1); [2]) of 33500 nM, an IC50 [1, 3] of 49.4 nM and an IC50 [1, 4] of 43.6 nM.
In the case of `CS(=O)(=O)c1ccc(-n2ccc3cnc(NCc4cccs4)nc32)cc1` [Compound 80], the “COX1 10 minutes pge2/pge2d4 area ratio Avg. LLE” value (ovine COX-1 (oCOX-1); [5]) is reported as 0.4422, the IC50 (ovine COX-1 (oCOX-1); [2]) is reported as 37800 nM and the “COX2 2 minutes pge2/pge2d4 area ratio Avg. LLE” value ([1]; readout pge2/pge2d4 area ratio) is reported as 3.33. The IC50 [1, 3] was 52 nM, the “COX2 2 minutes pge2 area (counts) Avg. LLE” value (shortened to “COX2 2 minutes pge2 area”) ([1]; readout pge2 area (counts)) was 3.382 and the IC50 [1, 4] was 45.5 nM.
With `CS(=O)(=O)c1ccc(-c2cnc3ccn(Cc4ccco4)c3n2)cc1` [Compound 82] the “COX1 10 minutes pge2/pge2d4 area ratio Avg. LLE” value (ovine COX-1 (oCOX-1); [5]) was 1.865, the “COX1 10 minutes pge2 area (counts) Avg. LLE” value (“COX1 10 minutes pge2 area” for short) (ovine COX-1 (oCOX-1); [6]) was 1.853 and the IC50 (ovine COX-1 (oCOX-1); [7]) was 17600 nM. The IC50 (ovine COX-1 (oCOX-1); [2]) was 17200 nM, the “COX2 2 minutes pge2/pge2d4 area ratio Avg. LLE” value ([1]; readout pge2/pge2d4 area ratio) was 4.353 and the IC50 [1, 3] was 57.3 nM. For the same compound, the “COX2 2 minutes pge2 area” value ([1]; readout pge2 area (counts)) was 4.328 and the IC50 [1, 4] was 63.3 nM.
With `CS(=O)(=O)c1ccc(-n2ccc3ccc(NCc4ccoc4)nc32)cc1` [Compound 83] the IC50 (ovine COX-1 (oCOX-1)) was 52000 nM, the “COX1 10 minutes pge2/pge2d4 area ratio Avg. LLE” value (ovine COX-1 (oCOX-1); [5]) was 0.284 and the “COX2 2 minutes pge2/pge2d4 area ratio Avg. LLE” value ([1]; readout pge2/pge2d4 area ratio) was 3.241. The IC50 [1, 3] was 57.9 nM, the “COX2 2 minutes pge2 area” value ([1]; readout pge2 area (counts)) was 3.278 and the IC50 [1, 4] was 53.5 nM.
In the case of `CSc1ccc(-c2cncc(NCc3cccs3)n2)cc1` [Compound 84], the “COX1 10 minutes pge2 area” value (ovine COX-1 (oCOX-1); [6]) is reported as 2.207, the IC50 (ovine COX-1 (oCOX-1); [7]) is reported as 1790 nM and the “COX2 2 minutes pge2/pge2d4 area ratio Avg. LLE” value ([1]; readout pge2/pge2d4 area ratio) is reported as 3.898. For the same compound, the IC50 [1, 3] was 58 nM, the “COX2 2 minutes pge2 area” value ([1]; readout pge2 area (counts)) was 4.023 and the IC50 [1, 4] was 52.5 nM.
With `Cc1coc(CNc2cccc(-c3ccc(S(C)(=O)=O)cc3)n2)c1` [Compound 85] the IC50 (ovine COX-1 (oCOX-1)) was 52000 nM, the “COX1 10 minutes pge2/pge2d4 area ratio Avg. LLE” value (ovine COX-1 (oCOX-1); [5]) was 1.134 and the “COX1 10 minutes pge2 area” value (ovine COX-1 (oCOX-1); [6]) was 1.134. For the same compound, the “COX2 2 minutes pge2/pge2d4 area ratio Avg. LLE” value ([1]; readout pge2/pge2d4 area ratio) was 4.23, the IC50 [1, 3] was 58.1 nM and the “COX2 2 minutes pge2 area” value ([1]; readout pge2 area (counts)) was 3.951. For the same compound, the IC50 [1, 4] was 115 nM.
In the case of `CS(=O)(=O)c1ccc(-c2cccc(NCc3ccns3)n2)cc1` [Compound 87], the “COX1 10 minutes pge2/pge2d4 area ratio Avg. LLE” value (ovine COX-1 (oCOX-1); [5]) is reported as 1.97, the “COX1 10 minutes pge2 area” value (ovine COX-1 (oCOX-1); [6]) is reported as 1.899 and the IC50 (ovine COX-1 (oCOX-1); [7]) is reported as 50200 nM. For the same compound, the IC50 (ovine COX-1 (oCOX-1); [2]) was 42600 nM, the “COX2 2 minutes pge2/pge2d4 area ratio Avg. LLE” value ([1]; readout pge2/pge2d4 area ratio) was 4.854 and the IC50 [1, 3] was 61.9 nM. For the same compound, the “COX2 2 minutes pge2 area” value ([1]; readout pge2 area (counts)) was 4.881 and the IC50 [1, 4] was 56.5 nM.
